Reference: patent US11180474B2 (BRISTOL-MYERS SQUIBB COMPANY, priority 2016, dated 2021)

Columns and labels:
human TLR7 = target: T1, human TLR7 (Homo sapiens, UniProt Q9NYK1); test: TLR7 inhibition reporter assay (HEK-Blue cells, SEAP reporter, gardiquimod stimulation); assay type: cell-based; settings: HEK-Blue cells overexpressing human TLR7, gardiquimod 7.5 μM
T1 construct: host or cells: HEK-Blue cells
T1 sequence (Q9NYK1 27-1049): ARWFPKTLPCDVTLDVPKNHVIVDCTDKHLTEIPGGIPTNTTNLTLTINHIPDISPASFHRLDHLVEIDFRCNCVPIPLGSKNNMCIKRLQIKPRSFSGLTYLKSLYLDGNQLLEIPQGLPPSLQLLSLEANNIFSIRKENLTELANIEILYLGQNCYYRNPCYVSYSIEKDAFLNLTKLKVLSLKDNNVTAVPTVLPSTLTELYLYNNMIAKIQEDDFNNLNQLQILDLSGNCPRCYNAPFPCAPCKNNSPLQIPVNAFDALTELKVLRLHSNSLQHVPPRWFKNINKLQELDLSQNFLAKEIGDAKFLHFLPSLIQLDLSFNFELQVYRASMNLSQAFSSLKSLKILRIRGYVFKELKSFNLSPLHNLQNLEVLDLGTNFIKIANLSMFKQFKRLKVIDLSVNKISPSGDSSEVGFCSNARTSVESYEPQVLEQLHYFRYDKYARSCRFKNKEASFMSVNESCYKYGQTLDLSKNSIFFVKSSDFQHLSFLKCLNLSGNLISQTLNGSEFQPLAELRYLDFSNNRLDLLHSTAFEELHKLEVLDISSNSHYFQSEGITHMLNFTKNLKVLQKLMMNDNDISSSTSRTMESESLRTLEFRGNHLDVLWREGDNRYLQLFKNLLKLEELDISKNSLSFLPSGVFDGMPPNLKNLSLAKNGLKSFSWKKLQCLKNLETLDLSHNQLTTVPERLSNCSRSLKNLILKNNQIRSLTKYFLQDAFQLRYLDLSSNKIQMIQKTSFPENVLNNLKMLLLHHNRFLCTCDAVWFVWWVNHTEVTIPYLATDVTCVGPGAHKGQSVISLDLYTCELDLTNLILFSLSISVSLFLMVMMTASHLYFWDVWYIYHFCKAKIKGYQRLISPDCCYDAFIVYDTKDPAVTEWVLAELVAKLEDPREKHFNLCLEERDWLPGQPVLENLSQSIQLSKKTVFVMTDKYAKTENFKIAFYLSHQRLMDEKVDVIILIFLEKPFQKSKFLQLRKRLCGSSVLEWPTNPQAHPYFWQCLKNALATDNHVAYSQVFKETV
How it was run: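 SEAP readout via HEK-Blue Detection medium after 22 h at 37 °C, 5% CO2 defines inhibition, normalized between agonist-plus-DMSO wells and a reference inhibitor. Compound dose range 0.05 nM–50 μM; TLR7 cells at 15,000/well (gardiquimod), TLR8 at 20,000/well (R848).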

human TLR9 = target: T2, human TLR9 (Homo sapiens, UniProt Q9NR96); test: TLR9 inhibition reporter assay (HEK-Blue cells, SEAP reporter, ODN2006 stimulation); assay type: cell-based; settings: HEK-Blue cells overexpressing human TLR9, ODN2006 5 nM
T2 construct: host or cells: HEK-Blue cells
T2 sequence (Q9NR96 26-1032): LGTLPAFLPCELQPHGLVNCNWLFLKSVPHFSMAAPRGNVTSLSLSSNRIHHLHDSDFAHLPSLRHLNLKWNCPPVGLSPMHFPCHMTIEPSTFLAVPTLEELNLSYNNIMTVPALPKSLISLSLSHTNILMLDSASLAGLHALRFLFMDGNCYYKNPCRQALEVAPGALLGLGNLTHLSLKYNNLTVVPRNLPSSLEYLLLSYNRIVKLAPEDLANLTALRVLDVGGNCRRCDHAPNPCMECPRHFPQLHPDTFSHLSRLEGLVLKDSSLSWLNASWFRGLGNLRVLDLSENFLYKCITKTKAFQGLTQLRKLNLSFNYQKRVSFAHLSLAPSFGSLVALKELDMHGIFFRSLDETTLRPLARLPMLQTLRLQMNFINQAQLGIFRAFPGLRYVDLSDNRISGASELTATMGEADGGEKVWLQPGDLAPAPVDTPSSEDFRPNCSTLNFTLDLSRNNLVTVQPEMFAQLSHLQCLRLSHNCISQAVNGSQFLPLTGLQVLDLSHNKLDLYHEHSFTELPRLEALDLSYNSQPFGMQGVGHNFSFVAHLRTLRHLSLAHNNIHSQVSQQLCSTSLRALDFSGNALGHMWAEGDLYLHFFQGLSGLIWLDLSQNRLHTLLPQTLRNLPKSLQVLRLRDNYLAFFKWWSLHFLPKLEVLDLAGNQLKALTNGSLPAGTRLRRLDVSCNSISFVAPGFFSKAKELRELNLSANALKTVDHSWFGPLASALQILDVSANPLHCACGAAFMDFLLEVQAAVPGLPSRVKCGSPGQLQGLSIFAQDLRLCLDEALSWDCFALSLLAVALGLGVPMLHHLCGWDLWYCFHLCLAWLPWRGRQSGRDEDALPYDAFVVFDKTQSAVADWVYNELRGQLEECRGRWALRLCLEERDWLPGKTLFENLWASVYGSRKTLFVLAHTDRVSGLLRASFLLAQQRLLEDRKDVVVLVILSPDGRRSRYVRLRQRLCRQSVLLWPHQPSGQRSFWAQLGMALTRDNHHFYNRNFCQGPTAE
How it was run: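 HEK-Blue cells overexpressing human TLR7, TLR8 or TLR9 carry a SEAP reporter driven by NF-κB/AP-1 sites. Compounds (0.05 nM–50 μM) were preincubated 30 min at room temperature, then cells were stimulated with gardiquimod 7.5 μM (TLR7), R848 15.9 μM (TLR8) or ODN2006 5 nM (TLR9) for 22 h at 37 °C.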

IC50 (human TLR7)	IC50 (human TLR9)	SMILES
118 nM	1900 nM	CCc1c(-c2ccc(OC)c(OC)c2)[nH]c2ccc(C3CCN(C(=O)CNC4(CO)CCCC4)CC3)cc12 [Example 160, 1-(4-(2-(3,4-dimethoxyphenyl)-3-ethyl-1H-indol-5-yl)piperidin-1-yl)-2-((1-(hydroxymethyl)cyclopentyl)amino)ethan-1-one]
280 nM	2170 nM	CCc1c(-c2ccc(OC)c(OC)c2)[nH]c2ccc(C3CCN(C(=O)CNC45CC6CC(CC(O)(C6)C4)C5)CC3)cc12 [Example 163, 1-(4-(2-(3,4-dimethoxyphenyl)-3-ethyl-1H-indol-5-yl)piperidin-1-yl)-2-(((1r,3s,5R,7S)-3-hydroxyadamantan-1-yl)amino) ethan-1-one]
160 nM	2130 nM	CCc1c(-c2ccc(OC)c(OC)c2)[nH]c2ccc(C3CCN(C(=O)CNCC(C)(C)CO)CC3)cc12 [Example 164, 1-(4-(2-(3,4-dimethoxyphenyl)-3-ethyl-1H-indol-5-yl)piperidin-1-yl)-2-((3-hydroxy-2,2-dimethylpropyl)amino)ethan-1-one]
107 nM	5170 nM	CCc1c(-c2ccc(OC)c(OC)c2)[nH]c2ccc(C3CCN(C(=O)CNC(CO)CO)CC3)cc12 [Example 165, 2-((1,3-dihydroxypropan-2-yl)amino)-1-(4-(2-(3,4-dimethoxyphenyl)-3-ethyl-1H-indol-5-yl)piperidin-1-yl)ethan-1-one]
300 nM	6440 nM	CCc1c(-c2ccc(OC)c(OC)c2)[nH]c2ccc(C3CCN(C(=O)CN4CCCN(C(C)=O)CC4)CC3)cc12 [Example 166, 2-(4-acetyl-1,4-diazepan-1-yl)-1-(4-(2-(3,4-dimethoxyphenyl)-3-ethyl-1H-indol-5-yl)piperidin-1-yl)ethan-1-one]
179 nM	33200 nM	CCc1c(-c2ccc(OC)c(OC)c2)[nH]c2ccc(C3CCN(C(=O)CN4CCOCC4)CC3)cc12 [Example 167, 1-(4-(2-(3,4-dimethoxyphenyl)-3-ethyl-1H-indol-5-yl)piperidin-1-yl)-2-morpholinoethan-1-one]
144 nM	2100 nM	CCc1c(-c2ccc(OC)c(OC)c2)[nH]c2ccc(C3CCN(C(=O)CN4CCCC(CO)C4)CC3)cc12 (stereo not drawn) [Example 169, 1-(4-(2-(3,4-dimethoxyphenyl)-3-ethyl-1H-indol-5-yl)piperidin-1-yl)-2-(3-(hydroxymethyl)piperidin-1-yl)ethan-1-one]
257 nM	1670 nM	CCc1c(-c2ccc(OC)c(OC)c2)[nH]c2ccc(C3CCN(C(=O)CN(C)C(C)C)CC3)cc12 [Example 170, 1-(4-(2-(3,4-dimethoxyphenyl)-3-ethyl-1H-indol-5-yl)piperidin-1-yl)-2-(isopropyl(methyl)amino) ethan-1-one]
488 nM	≥ 50000 nM	CCc1c(-c2ccc(OC)c(OC)c2)[nH]c2ccc(C3CCN(C(=O)CN4CCN(C(C)=O)CC4)CC3)cc12 [Example 171, 2-(4-acetylpiperazin-1-yl)-1-(4-(2-(3,4-dimethoxyphenyl)-3-ethyl-1H-indol-5-yl)piperidin-1-yl)ethan-1-one]
263 nM	19300 nM	CCc1c(-c2ccc(OC)c(OC)c2)[nH]c2ccc(C3CCN(C(=O)CN4CCN(C(=O)C5CCCO5)CC4)CC3)cc12 (stereo not drawn) [Example 172, 1-(4-(2-(3,4-dimethoxyphenyl)-3-ethyl-1H-indol-5-yl)piperidin-1-yl)-2-(4-(tetrahydrofuran-2-carbonyl)piperazin-1-yl)ethan-1-one]
1180 nM	2570 nM	CCCC[C@@H](CO)NCC(=O)N1CCC(c2ccc3[nH]c(-c4ccc(OC)c(OC)c4)c(CC)c3c2)CC1 [Example 174, (S)-1-(4-(2-(3,4-dimethoxyphenyl)-3-ethyl-1H-indol-5-yl)piperidin-1-yl)-2-((1-hydroxyhexan-2-yl)amino)ethan-1-one]
610 nM	≥ 50000 nM	CCc1c(-c2ccc(OC)c(OC)c2)[nH]c2ccc(C3CCN(C(=O)NC(C)C)CC3)cc12 [Example 182, 4-(2-(3,4-dimethoxyphenyl)-3-ethyl-1H-indol-5-yl)-N-isopropylpiperidine-1-carboxamide]
